Test system: subjects with a chronic motor complete cervical injury
Assay: Maximal handgrip strength (handgrip force measurement device) in tetraplegic subjects during pcEmc with oral buspirone
Assay type: in vivo, human
Method: Six subjects with chronic (18-36 months) spinal cord injury (SCI, traumatic cervical injury, ASIA B with no motor strength below the injury) were tested to determine if hand function can be improved by neuromodulating the cervical spinal cord. All subjects initially had minimal hand strength, a condition reflecting the majority of cervical SCI patients. Our experimental approach began with 6 weeks of baseline testing (Phase 1), followed by three 2-week treatment periods (Phases 2-4), and then by a period of approximately three months without any treatment at the end of which there was a final 2-week testing period (Phase 5). pcEmc at the C5 spinal segment (Phase 2) increased hand strength in 4/6 subjects compared to baseline Phase 1 (FIG. 1, panels A-G). […]
Voluntary motor control data were assessed using a handgrip force measurement device. […] The number of completed contraction-release sequences across the lines was determined. […] The percentage of data points that fell inside a circular window at a sampling of 15 Hz was determined. […]
The transcutaneous stimulation device is non-invasive. […] Varying combinations of these stimulation parameters were systematically assessed to obtain optimum facilitation of voluntary hand contraction by identification of the relative activation levels of the motor pools studied (data not shown). […]

O=C1CC2(CCCC2)CC(=O)N1CCCCN1CCN(c2ncccn2)CC1 [buspirone]
Mean hand strength increase (after pcEmc plus fEmc (buspirone) treatment, 6 subjects, 7.5 mg buspirone twice daily for 2 weeks, oral): greater than 300%
Subjects with increased hand strength compared to Phase 1 and 2 (during buspirone treatment (Phase 3) with pcEmc at C5, number of subjects out of 6): 4/6
